The text below walks through data of ChEMBL document CHEMBL1201862, “PubChem BioAssay data set” (2004).

One experiment concerns the target T1, Protein skinhead-1 (Caenorhabditis elegans, UniProt P34707).
T1 sequence (P34707 whole entry): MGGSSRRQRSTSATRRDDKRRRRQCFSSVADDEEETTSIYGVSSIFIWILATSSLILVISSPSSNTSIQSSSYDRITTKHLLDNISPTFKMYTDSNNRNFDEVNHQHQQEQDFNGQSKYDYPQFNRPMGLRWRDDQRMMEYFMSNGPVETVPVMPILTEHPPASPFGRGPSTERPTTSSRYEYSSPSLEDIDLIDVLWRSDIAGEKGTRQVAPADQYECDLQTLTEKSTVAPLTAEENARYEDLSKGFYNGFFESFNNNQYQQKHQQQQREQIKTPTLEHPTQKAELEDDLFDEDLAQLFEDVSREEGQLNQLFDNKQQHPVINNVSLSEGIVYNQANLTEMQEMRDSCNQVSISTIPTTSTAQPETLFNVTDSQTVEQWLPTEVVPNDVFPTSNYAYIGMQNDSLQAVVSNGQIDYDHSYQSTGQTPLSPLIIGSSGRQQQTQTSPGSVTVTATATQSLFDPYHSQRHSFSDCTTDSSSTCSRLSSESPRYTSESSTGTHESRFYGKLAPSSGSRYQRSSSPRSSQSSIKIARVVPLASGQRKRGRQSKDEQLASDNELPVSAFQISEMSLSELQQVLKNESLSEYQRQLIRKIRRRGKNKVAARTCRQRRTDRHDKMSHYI
It counts as functional.

Experiment [1] is described as follows: inhibitors of firefly luciferase expression or activity, dose response, H4 neuroglioma cells, luminescence (AID 1990). It counts as functional, cell-based.
Experiment [2] has as its system Vero. The experiment in a line: cells. It counts as functional, Chlorocebus sabaeus.
A short description of experiment [3]: Luminescence Cell-Based Dose Response HTS to Identify Inhibitors of 5'UTR Stem-Loop Driven Prion Protein mRNA Translation in H4 Neuroglioblastoma Cells. [Related pubchem assays: 1827 (Project Summary), 1813 (Primary HTS)]. It counts as functional.
A short description of experiment [4]: inhibitors of SNCA 5'UTR-driven reporter translation, confirmation, H4 neuroglioma cells, luminescence (AID 1988). It counts as functional, cell-based.
The target of experiment [5] is T2, Ubiquitin-conjugating enzyme E2 N (Homo sapiens, UniProt P61088).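 Further: Dose-response confirmation in a TR-FRET assay detecting UBC13-driven polyubiquitin chain formation, inhibition measured.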
T2 sequence (P61088 whole entry): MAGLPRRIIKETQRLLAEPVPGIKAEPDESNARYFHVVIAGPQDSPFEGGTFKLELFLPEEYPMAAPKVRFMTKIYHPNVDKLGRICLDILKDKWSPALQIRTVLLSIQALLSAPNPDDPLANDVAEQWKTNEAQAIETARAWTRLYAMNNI
It counts as functional.

The test system of experiment [6] is Vero. The experiment in a line: cells. It counts as functional, cell-based, Chlorocebus sabaeus.
A short description of experiment [7]: cells.
Experiment [8] in a line: cytotoxicity toward NIH3T3 fibroblasts, dose response, counter-screen, cell-based, ATP luminescence, mouse fibroblasts (AID 2010).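 Further: cells exposed to compound for about 90 hours before reading.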 It counts as functional.
Experiment [9] can be described thus: inhibitors of intracellular T. cruzi replication, confirmation, NIH3T3 host cells, beta-gal luminescence (AID 2044).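 Further: intracellular parasites grown in NIH/3T3 mouse fibroblasts as host cells; luminescent beta-galactosidase reporter signal from transgenic T. cruzi replicating inside host cells; inhibitors lower the luminescence signal.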 It counts as functional, cell-based.
For the next experiment, the system named is INS1. The experiment in a line: beta cell apoptosis inhibitors, cytokine rescue, dose response, luminescence, retest (AID 449756).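 Further: cell death triggered by IL-1 beta plus TNF-alpha plus IFN-gamma mixture; protective hits raise ATP signal compared with cytokine alone wells.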 It counts as functional, cell-based. The following applies: Rattus norvegicus.
The target in experiment [10] is T3, Short transient receptor potential channel 4 (Mus musculus, UniProt Q9QUQ5).
T3 sequence (Q9QUQ5 whole entry): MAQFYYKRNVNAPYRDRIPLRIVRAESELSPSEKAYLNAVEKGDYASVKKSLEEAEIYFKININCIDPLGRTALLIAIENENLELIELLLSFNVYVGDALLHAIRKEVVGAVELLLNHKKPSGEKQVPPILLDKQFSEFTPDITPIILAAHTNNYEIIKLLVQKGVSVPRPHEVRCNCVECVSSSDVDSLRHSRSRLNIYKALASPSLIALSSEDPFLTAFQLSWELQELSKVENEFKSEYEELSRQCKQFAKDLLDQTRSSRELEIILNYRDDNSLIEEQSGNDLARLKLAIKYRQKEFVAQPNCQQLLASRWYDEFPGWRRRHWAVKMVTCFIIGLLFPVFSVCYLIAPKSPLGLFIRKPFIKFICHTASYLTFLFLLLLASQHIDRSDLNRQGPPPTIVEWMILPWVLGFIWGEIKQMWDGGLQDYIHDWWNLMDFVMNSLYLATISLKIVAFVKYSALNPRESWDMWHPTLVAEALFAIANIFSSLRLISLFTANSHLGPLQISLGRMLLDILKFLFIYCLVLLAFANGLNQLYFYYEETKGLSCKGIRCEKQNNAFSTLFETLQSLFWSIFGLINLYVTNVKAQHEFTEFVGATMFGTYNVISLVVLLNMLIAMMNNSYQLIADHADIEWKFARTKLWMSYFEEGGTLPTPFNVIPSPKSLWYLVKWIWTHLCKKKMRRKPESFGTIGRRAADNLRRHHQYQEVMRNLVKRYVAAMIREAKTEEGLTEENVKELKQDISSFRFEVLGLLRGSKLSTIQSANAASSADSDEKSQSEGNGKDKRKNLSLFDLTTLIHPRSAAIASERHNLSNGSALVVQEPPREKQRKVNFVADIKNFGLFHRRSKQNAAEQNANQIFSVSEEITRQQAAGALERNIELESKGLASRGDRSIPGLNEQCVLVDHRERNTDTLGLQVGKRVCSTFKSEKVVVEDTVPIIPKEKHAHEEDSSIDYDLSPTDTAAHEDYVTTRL
The experiment in a line: mouse TRPC4 channel inhibitors, dose response, cell-based, HEK293 TRPC4/mu-opioid, Fluo-4 calcium (AID 434942).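 Further: potency of inhibitors blocking the TRPC4 calcium response.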 It counts as functional.

The nature of experiment [11]: cells. It counts as functional.
The nature of experiment [12]: THP-1 cell cytotoxicity, dose response, cytotoxicity control for non-replicating M. tuberculosis project (AID 489025). It counts as functional.
For the next experiment, the target named is Large T antigen (Simian virus 40, UniProt P03070). It counts as functional, Betapolyomavirus macacae.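 Further: Confirmatory-stage PubChem screen for compounds that inhibit SV40 T antigen.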
A further experiment has as its system H4. The experiment in a line: Luminescence Cell-Based Dose Response HTS to Identify Activators of 5'UTR Stem-Loop Driven Prion Protein mRNA Translation in H4 Neuroglioblastoma Cells. [Related pubchem assays: 1829 (Project Summary), 1814 (Primary HTS)]. It counts as functional. The following applies: Homo sapiens.
The nature of experiment [13]: Luminescence Cell-Based Dose Response HTS to Identify Activators of Luciferase Translation or Activity in H4 […] Cells. [Related pubchem assays: 1829 (Project Summary), 1814 (Primary HTS)]. It counts as functional.
Experiment [14] in a line: Luminescence Cell-Based Dose Confirmation HTS to Identify Activators of 5'UTR Stem-Loop Driven Alpha-Synuclein mRNA Translation in H4 Neuroglioblastoma Cells. [Related pubchem assays: 1829 (Project Summary), 1814 (Primary HTS)]. It counts as functional.

The source made the active and inactive calls. Some results are limits rather than exact numbers.

Chain of Large T antigen (P03070 whole entry): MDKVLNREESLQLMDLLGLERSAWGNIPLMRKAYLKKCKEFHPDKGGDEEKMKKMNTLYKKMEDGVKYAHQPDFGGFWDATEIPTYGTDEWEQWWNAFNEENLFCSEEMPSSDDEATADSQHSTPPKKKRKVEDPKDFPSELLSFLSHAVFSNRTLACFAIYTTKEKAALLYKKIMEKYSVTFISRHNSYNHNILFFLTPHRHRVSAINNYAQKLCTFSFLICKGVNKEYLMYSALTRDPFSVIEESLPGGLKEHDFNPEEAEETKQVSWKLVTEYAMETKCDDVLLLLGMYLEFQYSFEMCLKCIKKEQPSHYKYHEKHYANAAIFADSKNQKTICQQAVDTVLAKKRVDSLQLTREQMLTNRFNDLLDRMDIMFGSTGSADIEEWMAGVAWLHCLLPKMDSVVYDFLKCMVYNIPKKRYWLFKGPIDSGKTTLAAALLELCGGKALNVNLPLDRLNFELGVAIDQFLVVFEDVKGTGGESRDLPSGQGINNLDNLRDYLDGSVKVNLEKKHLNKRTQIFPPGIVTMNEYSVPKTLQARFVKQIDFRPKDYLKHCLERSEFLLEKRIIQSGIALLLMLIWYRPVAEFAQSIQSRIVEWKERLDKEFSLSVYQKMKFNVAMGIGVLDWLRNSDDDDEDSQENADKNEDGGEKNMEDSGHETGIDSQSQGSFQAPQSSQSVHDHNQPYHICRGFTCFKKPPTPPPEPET

Take `CC(=O)c1cccc(NS(=O)(=O)c2ccc3c(c2)oc(=O)n3C)c1`: the IC50 on Protein skinhead-1 was > 100 µM (inactive).

`COC(=O)c1c(NC(=O)c2ccc(OC(C)C)cc2)sc2c1CC(C)(C)NC2(C)C`: the EC50 in experiment [1] is 8.35 µM (active); in [3], 8.41 µM (active); in experiment [4] it was 8.31 µM (active). The CC50 with Vero [2] (Chlorocebus sabaeus, Vero) was > 25 µM (active). Besides, the IC50 in experiment [5] was > 20 µM (inactive); with Vero [6] (Chlorocebus sabaeus, Vero), 23.3 µM (active). Regarding `O=C(CSc1nc2ccccc2n1-c1ccccc1)Nc1ncc(Cl)cc1Cl`, the CC50 in the experiment on Vero [2] (Chlorocebus sabaeus, Vero) was 22.1 µM (active). Further, the IC50 in the experiment with Vero [6] (Chlorocebus sabaeus, Vero) is 4.63 µM (active). Consider `COc1cccc(NC(=O)CSc2nc3ccccc3c(=O)n2CCCC(=O)NCCCN2CCOCC2)c1`, for which the IC50 in experiment [5] was > 20 µM (inactive).

In the case of `N#Cc1ccsc1NC(=O)C1CCN(C(=O)c2ccc(Cl)cc2)CC1`, the IC50 in experiment [5] was > 20 µM (inactive). As to `CCc1ccc2oc(=O)cc(CN3CCN(Cc4ccccc4)CC3)c2c1`, the EC50 in “cells [7]” is 0.127 µM (active); in experiment [8], > 60 µM (not active); in experiment [9] it was < 0.1 µM (active). For `Cc1ccc2c(CN3CCN(Cc4ccccc4)CC3)cc(=O)oc2c1C`, in that order: 0.065 µM (active), > 60 µM (not active) and < 0.1 µM (active). Regarding `Cc1cc(C)n(Cc2ccc(C(=O)NCc3ccco3)o2)n1`, the IC50 on Protein skinhead-1 was > 100 µM (inactive). In the case of `C[C@]12CCCC[C@@H]1CC[C@@H]1[C@@H]2CC[C@@]2(C)[C@H]1CC[C@@]2(O)CNCCO`, the CC50 with Vero [2] was 19.4 µM (active); in the experiment on Vero [2] (Chlorocebus sabaeus, Vero), 18.4 µM (active). The IC50 in experiment [5] was > 20 µM (inactive); with Vero [6] (Chlorocebus sabaeus, Vero) it was > 12.5 µM (active); in the experiment on Vero [6] (vero) it was 9.19 µM (active).

For `CCCCCc1cc(=O)oc2c(C(CCN(CC)CC)c3ccc(OC)cc3)c(OC)cc(OC)c12` (stereo unspecified), the IC50 in experiment [5] was > 20 µM (inactive). In the experiment on INS1, the AC50 was 10.8 µM (active). With `COc1ccc(Cn2nnnc2C(c2cc3cc(C)ccc3nc2O)N2CCN(C)CC2)cc1` (stereo unspecified), in [10], the EC50 is 1.88 µM (active). As to `CCCCN1CCC(O)(c2ccccc2)C(C(=O)c2ccccc2)C1` (stereo unspecified), the IC50 in the experiment “cells [11]” is 29.6 µM (active). Further, the CC50 in [12] is > 40 µM (active).

As to `COc1cc(/C=N/N(C)C)cc(Br)c1O`, the IC50 on Large T antigen was 5.17 µM (active).

Turning to `Clc1cccc(OCc2nc(-c3ccncc3)no2)c1`, at Protein skinhead-1, the IC50 was 26.6 µM (active). On the same count and under the same terms, under `COc1cccc(C(c2sc3ncnn3c2O)N2CC(C)OC(C)C2)c1` (stereo unspecified) stands > 100 µM (inactive).

Consider `C=CCNc1nnc(Sc2ncccc2[N+](=O)[O-])s1`, for which the half-maximal effective concentration (EC50) is 17.8 µM (active) in the experiment on H4, 10.3 µM (inconclusive) in [13] and > 120 µM (not active) in experiment [14]. The IC50 in the experiment “cells [11]” was 3.81 µM (active). Besides, the CC50 in [12] is 33.4 µM (active). In the case of `Cc1cc(NC(=O)CSc2nc3ccccc3c(=O)n2Cc2ccc(F)cc2)no1`, the IC50 at Protein skinhead-1 is 82.4 µM (inactive). For `CCOC(=O)Cc1cc(=O)n(-c2nc3ccccc3s2)[nH]1`, at Large T antigen, the IC50 is > 100 µM (active). Turning to `COc1ccc(Br)cc1CN1CCN(C(=O)Cc2ccccc2)CC1`, the concentration giving a half-maximal response (EC50) in experiment [10] was 6.68 µM (active). For `Cc1ccc(O)c(C(=O)CC(=O)c2cccc(F)c2)c1`, in the experiment on Vero [2] (Chlorocebus sabaeus, Vero), the CC50 was > 25 µM (active). Moreover, the IC50 in the experiment on Vero [6] (Chlorocebus sabaeus, Vero) is 21.1 µM (active).

On to `N=c1c2c(n(Cc3ccccc3)c3c1CCC3)CCC2`, for which, in experiment [10], the EC50 is 3.35 µM (active). On the same count and under the same terms, as for `CCOC(=O)C1(CCOc2ccccc2)CCN(Cc2cccs2)CC1`, the figure is 4.22 µM (active). Turning to `CCCc1ccc(OCc2ccc(C(=O)N/N=C/c3cccnc3)o2)cc1`, the IC50 in “cells [11]” was 47.6 µM (active). The CC50 in experiment [12] was > 40 µM (active). For the compound `CNCCNC[C@H](Cc1cccc2ccccc12)NCCc1ccccc1`, in the experiment with Vero [6] (Chlorocebus sabaeus, Vero), the IC50 is 20.4 µM (active).
